System: K86415-001-R-J1-PDC complex spheroids, viability
Assay: Anticancer human tumor K86415-001-R-J1-PDC patient-derived lung adenocarcinoma cell line growth inhibition [RAS]
Details: for IC50: curve of first compound; for viability, T/C: stronger effect = lower value
In short: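 Agents were tested in combination matrices in half-log decrements from a top concentration at or near clinical Cmax (10 microM if undetermined). Targets were multi-cell spheroids of tumour lines plus HUVEC and MSC stromal cells.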

[1] = second compound 0.000949 µM, first compound 0.00316 µM
[2] = second compound 0.000949 µM, first compound 0.01 µM
[3] = second compound 0.000949 µM, first compound 0.0316 µM
[4] = second compound 0.000949 µM, first compound 0.1 µM
[5] = second compound 0.003 µM, first compound 0.00316 µM
[6] = second compound 0.003 µM, first compound 0.01 µM
[7] = second compound 0.003 µM, first compound 0.0316 µM
[8] = second compound 0.003 µM, first compound 0.1 µM
[9] = second compound 0.00949 µM, first compound 0.00316 µM
[10] = second compound 0.00949 µM, first compound 0.01 µM
[11] = second compound 0.00949 µM, first compound 0.0316 µM
[12] = second compound 0.00949 µM, first compound 0.1 µM
[13] = second compound 0.03 µM, first compound 0.00316 µM
[14] = second compound 0.03 µM, first compound 0.01 µM
[15] = second compound 0.03 µM, first compound 0.0316 µM
[16] = second compound 0.03 µM, first compound 0.1 µM
[17] = second compound 0.0949 µM, first compound 0.00316 µM
[18] = second compound 0.0949 µM, first compound 0.01 µM
[19] = second compound 0.0949 µM, first compound 0.0316 µM
[20] = second compound 0.0949 µM, first compound 0.1 µM
[21] = second compound 0.3 µM, first compound 0.00316 µM
[22] = second compound 0.3 µM, first compound 0.01 µM
[23] = second compound 0.3 µM, first compound 0.0316 µM
[24] = second compound 0.3 µM, first compound 0.1 µM
[25] = second compound 0.000949 µM, first compound 0.316 µM
[26] = second compound 0.000949 µM, first compound 1 µM
[27] = second compound 0.000949 µM, first compound 3.16 µM
[28] = second compound 0.000949 µM, first compound 10 µM
[29] = second compound 0.003 µM, first compound 0.316 µM
[30] = second compound 0.003 µM, first compound 1 µM
[31] = second compound 0.003 µM, first compound 3.16 µM
[32] = second compound 0.003 µM, first compound 10 µM
[33] = second compound 0.00949 µM, first compound 0.316 µM
[34] = second compound 0.00949 µM, first compound 1 µM
[35] = second compound 0.00949 µM, first compound 3.16 µM
[36] = second compound 0.00949 µM, first compound 10 µM
[37] = second compound 0.03 µM, first compound 0.316 µM
[38] = second compound 0.03 µM, first compound 1 µM
[39] = second compound 0.03 µM, first compound 3.16 µM
[40] = second compound 0.03 µM, first compound 10 µM
[41] = second compound 0.0949 µM, first compound 0.316 µM
[42] = second compound 0.0949 µM, first compound 1 µM
[43] = second compound 0.0949 µM, first compound 3.16 µM
[44] = second compound 0.0949 µM, first compound 10 µM
[45] = second compound 0.3 µM, first compound 0.316 µM
[46] = second compound 0.3 µM, first compound 1 µM
[47] = second compound 0.3 µM, first compound 3.16 µM
[48] = second compound 0.3 µM, first compound 10 µM
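Also: spheroids exposed to agents for seven days before readout.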

With `CC(C)n1nc(-c2ccc3oc(N)nc3c2)c2c(N)ncnc21` + CCn1c(-c2cc(N3CCN(C)CC3)cnc2C(C)OC)c2c3cc(ccc31)-c1csc(n1)CC(NC(=O)C1CC1C)C(=O)N1CCCC(N1)C(=O)OCC(C)(C)C2 the IC50 (second compound 0.000949 µM) was < 0.316 nM, the IC50 (second compound 0.003 µM) was < 0.316 nM and the IC50 (second compound 0.00949 µM) was < 0.316 nM. The IC50 (second compound 0.03 µM) was < 0.316 nM, the IC50 (second compound 0.0949 µM) was < 0.316 nM and the IC50 (second compound 0.3 µM) was < 0.316 nM. The viability, T/C (second compound 0.000949 µM, first compound 0.000316 µM) was 46.4%, the viability, T/C (second compound 0.000949 µM, first compound 0.001 µM) was 46.7% and the viability, T/C [1] was 39.5%. It also gave a viability, T/C [2] of 43.9%, a viability, T/C [3] of 35.4% and a viability, T/C [4] of 20.4%. It also gave a viability, T/C (second compound 0.003 µM, first compound 0.000316 µM) of 23.1%, a viability, T/C (second compound 0.003 µM, first compound 0.001 µM) of 17.4% and a viability, T/C [5] of 18.4%. For the same compound, the viability, T/C [6] was 16.3%, the viability, T/C [7] was 23.8% and the viability, T/C [8] was 7.47%. The viability, T/C (second compound 0.00949 µM, first compound 0.000316 µM) was 11.5%, the viability, T/C (second compound 0.00949 µM, first compound 0.001 µM) was 9.33% and the viability, T/C [9] was 9.17%. For the same compound, the viability, T/C [10] was 8.21%, the viability, T/C [11] was 3.17% and the viability, T/C [12] was 2.45%. It also gave a viability, T/C (second compound 0.03 µM, first compound 0.000316 µM) of 5.52%, a viability, T/C (second compound 0.03 µM, first compound 0.001 µM) of 4.5% and a viability, T/C [13] of 3.7%. The viability, T/C [14] was 2.13%, the viability, T/C [15] was 0.97% and the viability, T/C [16] was 1.14%. It also gave a viability, T/C (second compound 0.0949 µM, first compound 0.000316 µM) of 3.75%, a viability, T/C (second compound 0.0949 µM, first compound 0.001 µM) of 3.4% and a viability, T/C [17] of 2.07%. The viability, T/C [18] was 1.07%, the viability, T/C [19] was 0.49% and the viability, T/C [20] was 0.77%. The viability, T/C (second compound 0.3 µM, first compound 0.000316 µM) was 2.48%, the viability, T/C (second compound 0.3 µM, first compound 0.001 µM) was 2.57% and the viability, T/C [21] was 2.13%. It also gave a viability, T/C [22] of 0.8%, a viability, T/C [23] of 0.57% and a viability, T/C [24] of 0.8%.

In the case of `CC1(O)CCCC1n1c(=O)c(C(F)F)cc2cnc(NC3CCN(S(C)(=O)=O)CC3)nc21` (stereo not drawn) + CCn1c(-c2cc(N3CCN(C)CC3)cnc2C(C)OC)c2c3cc(ccc31)-c1csc(n1)CC(NC(=O)C1CC1C)C(=O)N1CCCC(N1)C(=O)OCC(C)(C)C2, the IC50 (second compound 0.000949 µM) is reported as 31.6 nM, the IC50 (second compound 0.003 µM) is reported as < 31.6 nM and the IC50 (second compound 0.00949 µM) is reported as < 31.6 nM. The IC50 (second compound 0.03 µM) was < 31.6 nM, the IC50 (second compound 0.0949 µM) was < 31.6 nM and the IC50 (second compound 0.3 µM) was < 31.6 nM. It also gave a viability, T/C [3] of 41.9%, a viability, T/C [4] of 36.9% and a viability, T/C [25] of 36.7%. The viability, T/C [26] was 47%, the viability, T/C [27] was 57.5% and the viability, T/C [28] was 4.99%. The viability, T/C [7] was 18.4%, the viability, T/C [8] was 19.2% and the viability, T/C [29] was 20%. It also gave a viability, T/C [30] of 23.5%, a viability, T/C [31] of 43% and a viability, T/C [32] of 4.43%. The viability, T/C [11] was 10.9%, the viability, T/C [12] was 8.83% and the viability, T/C [33] was 10.7%. For the same compound, the viability, T/C [34] was 11.5%, the viability, T/C [35] was 20.2% and the viability, T/C [36] was 5.31%. It also gave a viability, T/C [15] of 6.62%, a viability, T/C [16] of 6.19% and a viability, T/C [37] of 6.48%. It also gave a viability, T/C [38] of 10.7%, a viability, T/C [39] of 12.3% and a viability, T/C [40] of 4.06%. It also gave a viability, T/C [19] of 4.05%, a viability, T/C [20] of 4.63% and a viability, T/C [41] of 4.78%. It also gave a viability, T/C [42] of 5.15%, a viability, T/C [43] of 6.85% and a viability, T/C [44] of 5.2%. It also gave a viability, T/C [23] of 3.61%, a viability, T/C [24] of 5.05% and a viability, T/C [45] of 4.72%. It also gave a viability, T/C [46] of 5.49%, a viability, T/C [47] of 7.45% and a viability, T/C [48] of 4.66%.

In the case of `CCN1CCN(Cc2ccc(Nc3ncc(F)c(-c4cc(F)c5nc(C)n(C(C)C)c5c4)n3)nc2)CC1` + CCn1c(-c2cc(N3CCN(C)CC3)cnc2C(C)OC)c2c3cc(ccc31)-c1csc(n1)CC(NC(=O)C1CC1C)C(=O)N1CCCC(N1)C(=O)OCC(C)(C)C2, the IC50 (second compound 0.000949 µM) is reported as < 3.16 nM, the IC50 (second compound 0.003 µM) is reported as < 3.16 nM and the IC50 (second compound 0.00949 µM) is reported as < 3.16 nM. The IC50 (second compound 0.03 µM) was < 3.16 nM, the IC50 (second compound 0.0949 µM) was < 3.16 nM and the IC50 (second compound 0.3 µM) was < 3.16 nM. It also gave a viability, T/C [1] of 47.9%, a viability, T/C [2] of 40.1% and a viability, T/C [3] of 34.3%. For the same compound, the viability, T/C [4] was 34.2%, the viability, T/C [25] was 35.9% and the viability, T/C [26] was 40.8%. The viability, T/C [5] was 21.5%, the viability, T/C [6] was 17.4% and the viability, T/C [7] was 17.5%. It also gave a viability, T/C [8] of 19.1%, a viability, T/C [29] of 26.6% and a viability, T/C [30] of 23.5%. For the same compound, the viability, T/C [9] was 12.5%, the viability, T/C [10] was 10.9% and the viability, T/C [11] was 10.3%. The viability, T/C [12] was 11.9%, the viability, T/C [33] was 10.6% and the viability, T/C [34] was 8.22%. It also gave a viability, T/C [13] of 5.68%, a viability, T/C [14] of 6.29% and a viability, T/C [15] of 3.09%. It also gave a viability, T/C [16] of 5.81%, a viability, T/C [37] of 4.33% and a viability, T/C [38] of 3.19%. For the same compound, the viability, T/C [17] was 3.17%, the viability, T/C [18] was 3.79% and the viability, T/C [19] was 3.86%. For the same compound, the viability, T/C [20] was 3.09%, the viability, T/C [41] was 2.31% and the viability, T/C [42] was 1.64%. It also gave a viability, T/C [21] of 2.92%, a viability, T/C [22] of 3.03% and a viability, T/C [23] of 2.27%. It also gave a viability, T/C [24] of 1.73%, a viability, T/C [45] of 1.63% and a viability, T/C [46] of 1.66%.

With `C[C@@H](NC(=O)c1ncnc(N)c1Cl)c1ncc(C(=O)Nc2cc(C(F)(F)F)c(Cl)cn2)s1` + CCn1c(-c2cc(N3CCN(C)CC3)cnc2C(C)OC)c2c3cc(ccc31)-c1csc(n1)CC(NC(=O)C1CC1C)C(=O)N1CCCC(N1)C(=O)OCC(C)(C)C2 the IC50 (second compound 0.000949 µM) was 4280 nM, the IC50 (second compound 0.003 µM) was < 31.6 nM and the IC50 (second compound 0.00949 µM) was < 31.6 nM. The IC50 (second compound 0.03 µM) was < 31.6 nM, the IC50 (second compound 0.0949 µM) was < 31.6 nM and the IC50 (second compound 0.3 µM) was < 31.6 nM. For the same compound, the viability, T/C [3] was 58.2%, the viability, T/C [4] was 62.2% and the viability, T/C [25] was 53.7%. For the same compound, the viability, T/C [26] was 62.2%, the viability, T/C [27] was 57.1% and the viability, T/C [28] was 29.1%. For the same compound, the viability, T/C [7] was 34.8%, the viability, T/C [8] was 27.6% and the viability, T/C [29] was 32.1%. For the same compound, the viability, T/C [30] was 38.1%, the viability, T/C [31] was 33.4% and the viability, T/C [32] was 21.7%. The viability, T/C [11] was 12.9%, the viability, T/C [12] was 11.8% and the viability, T/C [33] was 11.9%. The viability, T/C [34] was 16.6%, the viability, T/C [35] was 15.4% and the viability, T/C [36] was 11.6%. The viability, T/C [15] was 6.75%, the viability, T/C [16] was 8.74% and the viability, T/C [37] was 8.31%. The viability, T/C [38] was 8.07%, the viability, T/C [39] was 8.51% and the viability, T/C [40] was 7.57%. The viability, T/C [19] was 5.52%, the viability, T/C [20] was 4.87% and the viability, T/C [41] was 4.23%. The viability, T/C [42] was 4.04%, the viability, T/C [43] was 4.24% and the viability, T/C [44] was 4.39%. For the same compound, the viability, T/C [23] was 3.5%, the viability, T/C [24] was 3.03% and the viability, T/C [45] was 4.17%. For the same compound, the viability, T/C [46] was 3.4%, the viability, T/C [47] was 4.53% and the viability, T/C [48] was 4.26%.

From PubChem BioAssay AID2060893 (Molecular Pharmacology Branch, DTP, NCI, 2025)
